Results: US9872875B2, “Component and method for treating viral disease” (Institut Pasteur of Shanghai, Chinese Academy of Sciences, priority 2012, dated 2018)
Read-outs that look alike come from different tables or passages of the source.

Key:
RD cells = assay: Cytotoxicity to RD cells (Celltiter Glo); format: cell-based
Procedure: Cytotoxicity to RD cells at different E02 concentrations was measured using Celltitr Glo reagents as follows:
(1) Cells seeding: 24 h prior to testing, RD cells were seeded in 96-well cell culture plates at 5×10^4 per well;
(2) Cells incubated with E02: medium was removed from cell culture plates, 180 μl of DMEM containing 2% FBS was added, and then added 20 μl of DMEM solution with corresponding concentration of E02, placed in 37° C., 5% CO2 incubator for incubation;
(3) After cultured for 46 h, cellular ATP levels were measured using the PROMEGA Celltitr Glo reagents according to reagent instructions.
PPADS is an E02 analog (Khakh, Burnstock et al., 2001; Burnstock 2004; Coddou, Yan et al. 2011) and has a similar inhibitory effect on P2X subtypes to that of E02. RD cells were infected with EV71 clinical isolate FY 573 at different PPADS concentrations to determine the inhibitory effect of PPADS on EV71 replication. Detailed procedure is the same as that in “1” of Example 1. In addition, cytotoxicity to RD cells at each concentration of PPADS was determined. Detailed procedure is the same as that in “1” of Example 6.

P2X5 receptor = P2X5 receptor (Homo sapiens, UniProt Q93086); details: Table 8, antagonists; cited from earlier work
EV71 = assay: Inhibition of EV71 replication in RD cells at 0.1, 1, 10 and 100 μM (CPE, crystal violet); format: cell-based, Enterovirus 71; details: Table 8, antagonists
Summary of the method: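 RD cells infected with EV71 and treated at 0.1, 1, 10 and 100 μM were incubated 3˜4 days, crystal violet-stained and inspected microscopically for CPE. Cytotoxicity was checked in parallel by culturing uninfected RD cells with compound for 3˜4 days and examining cell-layer damage.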

P2X6 receptor = P2X6 receptor (Homo sapiens, UniProt O15547); set-up: key: −: no activity; +: activating concentration >10 μM; ++: activating concentration 1~10 μM; +++: activating concentration <1 μM; details: Table 8, antagonists; cited from earlier work
P2X3 receptor = target: T1, P2X3 receptor (Homo sapiens, UniProt P56373); details: Table 8, antagonists; cited from earlier work
T1 sequence (P56373 1-397): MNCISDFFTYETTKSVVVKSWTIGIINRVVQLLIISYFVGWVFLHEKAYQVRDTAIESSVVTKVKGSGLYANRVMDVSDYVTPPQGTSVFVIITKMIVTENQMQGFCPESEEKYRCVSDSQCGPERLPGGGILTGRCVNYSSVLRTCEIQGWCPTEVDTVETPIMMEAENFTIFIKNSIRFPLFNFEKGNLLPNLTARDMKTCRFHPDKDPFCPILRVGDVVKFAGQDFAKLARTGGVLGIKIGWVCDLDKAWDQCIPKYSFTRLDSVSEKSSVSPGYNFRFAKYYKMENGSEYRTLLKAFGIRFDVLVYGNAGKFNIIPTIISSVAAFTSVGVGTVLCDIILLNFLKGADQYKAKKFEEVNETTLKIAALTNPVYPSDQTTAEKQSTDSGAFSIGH

[1] = tested on: EV71 clinical isolate (EV71 FY 573); assay: EV71 clinical isolate replication in RD cells, viral load by quantitative RT-PCR; format: cell-based, Enterovirus 71
Procedure: RD cells were infected with EV71 clinical isolate (EV71 FY 573) in different E02 concentrations, at the MOI (multiplicity of infection) of 0.1. At 46 h post infection, viral RNA in culture supernatant was extracted, and the relative EV71 viral load was determined by quantitative RT-PCR. Procedures are detailed as follows:
(1) Cell seeding: 24 h prior to infection, RD cells were seeded in 96-well cell culture plates, 5×10^4 cells per well.
(2) Infection: • a. Virus pre-incubated with drug: virus stock solution was diluted to 5×10^4 TCID50/ml with DMEM and dispensed to 96-well plates at 100 μl per well, and 11 μl of E02 dissolved in DMEM at corresponding concentration or DMEM was added, and incubated at 37° C. for 1 h; • b. Cells pre-incubated with drug: cell culture medium was removed from 96-well plates, each well was added 100 μl of DMEM, then added 11 μl of E02 solution at corresponding concentration or DMEM, and incubated at 37° C. for 1 h; • c. After 1 h incubation, drug was discarded from cell culture plates, 111 μl of virus pre-incubated with drug was transferred to cell culture plates, and incubated at 37° C. for 1 h; • d. After incubation, the supernatant was discarded, cells were washed twice with 50 μl of DMEM, each well was added 180 μl of DMEM containing 2% FBS, 20 μl of E02 solution at corresponding concentration or DMEM. Cell culture plates were placed in 37° C., 5% (v/v) carbon dioxide incubator for incubation.
(3) Harvesting virus and RNA extraction: after infection, cells were cultured for 46 h, 140 μl of supernatant was transferred to 96-deep well plates, viral RNA extraction was performed using viral RNA extraction kit (QIAGEN QIAamp Viral RNA Mini Kit, cat #52906) according to standard operating procedures of the kit.
(4) Viral load measurements: EV71 5′UTR gene was detected using ABI Taqman one-step RT-PCR kit (ABI TaqMan® One-Step RT-PCR, cat #4309169) of ABI 7900HT 384-well plates PCR system. EV71 5′UTR quantitative RT-PCR thermal cycling program (Taqman);
(5) PCR CT values were converted to viral load using PCR standard curves (standard curves were obtained by CT values determined by performing RT-PCR on RNA extracted from viruses serially diluted with defined titers at 10-fold).

Chain of P2X6 receptor (O15547 whole entry): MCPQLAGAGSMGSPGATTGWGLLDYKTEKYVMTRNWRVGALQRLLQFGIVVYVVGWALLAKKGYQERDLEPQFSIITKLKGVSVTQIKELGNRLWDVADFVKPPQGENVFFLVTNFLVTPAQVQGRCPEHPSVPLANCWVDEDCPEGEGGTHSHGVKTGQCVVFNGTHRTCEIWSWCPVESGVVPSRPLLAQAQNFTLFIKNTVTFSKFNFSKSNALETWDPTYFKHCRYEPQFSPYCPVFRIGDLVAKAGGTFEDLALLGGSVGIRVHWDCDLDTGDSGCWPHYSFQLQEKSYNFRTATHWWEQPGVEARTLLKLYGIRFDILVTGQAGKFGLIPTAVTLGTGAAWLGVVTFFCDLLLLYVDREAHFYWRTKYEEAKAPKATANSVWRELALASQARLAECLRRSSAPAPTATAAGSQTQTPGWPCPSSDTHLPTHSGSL
Chain of P2X5 receptor (Q93086 whole entry): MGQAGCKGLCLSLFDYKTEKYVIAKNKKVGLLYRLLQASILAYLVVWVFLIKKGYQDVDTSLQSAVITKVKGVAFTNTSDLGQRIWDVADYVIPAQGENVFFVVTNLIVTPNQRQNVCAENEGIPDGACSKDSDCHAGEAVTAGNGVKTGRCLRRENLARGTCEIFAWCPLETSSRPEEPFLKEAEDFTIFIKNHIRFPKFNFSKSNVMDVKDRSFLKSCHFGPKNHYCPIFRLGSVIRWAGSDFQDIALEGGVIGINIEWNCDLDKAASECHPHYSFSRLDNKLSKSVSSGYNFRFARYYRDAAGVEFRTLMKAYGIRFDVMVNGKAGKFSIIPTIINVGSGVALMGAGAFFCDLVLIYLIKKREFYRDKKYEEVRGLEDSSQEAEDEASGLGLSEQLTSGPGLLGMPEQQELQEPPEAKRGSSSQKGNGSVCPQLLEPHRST

Structure (SMILES) | cytotoxicity to RD cells (RD cells; 1×10^−6 to 1×10^4 μM of E02, 46 h, cellular ATP) | P2X receptors 5 (P2X5 receptor) | Inhibition of EV71 replication (EV71) | P2X receptors 6 (P2X6 receptor) | P2X receptors 3 (P2X3 receptor) | concentration at which EV71 replication is reduced 10-fold ([1]; EV71 FY 573, RD cells, 46 h) | concentration at which EV71 replication is reduced 100-fold ([1]; EV71 FY 573, RD cells, 46 h) | concentration at which EV71 replication is reduced 1,000-fold ([1]; EV71 FY 573, RD cells, 46 h) | concentration at which EV71 replication is reduced 10,000-fold ([1]; EV71 FY 573, RD cells, 46 h) | EC50 ([1]; Enterovirus A, EV71, RD, 46 h, read-out: EC50 (50% effective concentration) for inhibiting EV71 replication in RD cells) | EC50 ([1]; Enterovirus A, EV71, RD cells, summary over RT-PCR, TCID50 and PFU tests, read-out: EC50 that inhibits EV71 clinical isolate (summary of Examples 1-3)) | concentrations not cytotoxic to RD cells (RD cells; PPADS) | EC50 ([1]; EV71 FY 573, MOI 0.1, 46 h, viral RNA in supernatant, read-out: EC50 (50% effective concentration) for inhibiting EV71 replication in RD cells)
Cc1ccc(C(=O)Nc2ccc(S(=O)(=O)O)c3cc(S(=O)(=O)O)cc(S(=O)(=O)O)c23)cc1NC(=O)c1cccc(NC(=O)Nc2cccc(C(=O)Nc3cc(C(=O)Nc4ccc(S(=O)(=O)O)c5cc(S(=O)(=O)O)cc(S(=O)(=O)O)c45)ccc3C)c2)c1 [E02, Suramin Sodium] | no cytotoxicity | ++ (++: inhibitory concentration = 10~300 nM) | + (+: inhibitory concentration >300 nM) | − | + (+: inhibitory concentration >300 nM) | 3.44 μM | 5.19 µM | 6.45 µM | 7.63 µM | 6.93 µM | < 6.93 µM |  | 
Cc1nc(N=Nc2ccc(S(=O)(=O)O)cc2S(=O)(=O)O)c(COP(=O)(O)O)c(C=O)c1O [PPADS, pyridoxal-phosphate-6-azophenyl-2′, 4′-disulphonic acid] |  | ++ (++: inhibitory concentration = 10~300 nM) | + (+: inhibitory concentration >300 nM) | + (+: inhibitory concentration >300 nM) | ++ (++: inhibitory concentration = 10~300 nM) |  |  |  |  |  |  | lower than 64 μM | 18.9 µM
